Values of other authors as cited in patent publication US10849951B2, “Use of PHY906 as treatment for inflammatory bowel disease and/or irritable bowel syndrome” (priority 2007, dated 2020).

How the values were obtained:
[1] = target: bacterial 13-glucuronidase (Escherichia coli, UniProt P05804)
patients = settings: NCI Common Toxicity criteria
perineal Crohn's = settings: human, in vivo

bacterial 13-glucuronidase, sequence (P05804 whole entry): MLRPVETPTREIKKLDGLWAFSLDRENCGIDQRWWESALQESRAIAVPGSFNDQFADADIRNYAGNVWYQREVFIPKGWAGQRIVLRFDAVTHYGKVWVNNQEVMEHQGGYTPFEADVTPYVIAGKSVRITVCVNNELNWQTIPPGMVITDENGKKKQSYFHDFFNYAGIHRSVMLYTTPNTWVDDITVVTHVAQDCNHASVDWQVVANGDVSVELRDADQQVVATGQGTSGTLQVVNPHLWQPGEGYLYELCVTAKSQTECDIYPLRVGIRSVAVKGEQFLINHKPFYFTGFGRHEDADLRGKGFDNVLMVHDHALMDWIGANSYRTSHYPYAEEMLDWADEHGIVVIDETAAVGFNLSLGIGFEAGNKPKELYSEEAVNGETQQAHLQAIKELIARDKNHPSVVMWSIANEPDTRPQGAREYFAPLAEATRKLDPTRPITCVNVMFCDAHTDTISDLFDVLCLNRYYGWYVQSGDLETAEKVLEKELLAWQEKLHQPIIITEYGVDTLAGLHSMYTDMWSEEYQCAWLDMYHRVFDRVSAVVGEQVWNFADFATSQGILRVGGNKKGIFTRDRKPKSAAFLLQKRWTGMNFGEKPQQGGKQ

O=c1cc(-c2ccccc2)oc2cc(O)c(O)c(O)c12 [Baicalein]
inhibition of bacterial 13-glucuronidase [1]: feedback inhibitor

CCc1c2c(nc3ccc(OC(=O)N4CCC(N5CCCCC5)CC4)cc13)-c1cc3c(c(=O)n1C2)COC(=O)[C@]3(O)CC [CPT-11, irinotecan]
patients with diarrhea classified grade 3 (serious) or grade 4 (life-threatening) (patients): about 40%

Cc1ncc([N+](=O)[O-])n1CCO [Metronidazole, metronidazole]
cases in which managing perineal Crohn's is effective (perineal Crohn's): over 50%
